According to patent publication US10329324B2 (viDA Therapeutics Inc., priority 2013, dated 2019):
Where a name gives a salt, the structure may show the parent alone. Read-outs that look alike come from different tables or passages of the source.

What was measured:
human Granzyme B (hGzmB) = molecular target: T1, human Granzyme B (hGzmB) (Homo sapiens, UniProt P10144); test: Human Granzyme B enzymatic inhibition assay (fluorogenic, kinetic); assay type: biochemical; details: activity codes, Table 7; read-out: IC50 Activity Range
T1 construct: purchased Froelich Lab, Northshore University Health Systems Research Institute, Evanston, Ill., USA
Method: A specific 2× assay buffer was prepared for the enzyme to be tested (see Table 2 for final 1× assay buffer compositions). If the assay buffer included DTT, it was added immediately prior to running the assay. A 2× enzyme mix was prepared (see Table 3 for enzyme assay conditions) at 80 uL per well. Compounds were screened at one or two appropriate concentrations (to determine the percent inhibition at those concentrations) and/or a full dose response curve (typically 8 points, to identify the IC50) in duplicate, triplicate, or higher replicates as needed. An appropriate control was also assessed in full dose response, in duplicate for each assay/plate. Background control wells consisted of 1× assay buffer, DMSO (5% v/v) and substrate. Positive control wells consisted of enzyme, DMSO (5% v/v) and substrate. Test compounds and control compounds were diluted in DMSO to […] the final desired concentration. For example, a test compound may be tested in dose response, in serial, tripling dilution condition starting at 20 uM and ending at 9.1 nM (or any appropriate concentration range and dilution scheme). Control compounds were prepared similarly. Diluted compounds were prepared in a dilution plate and transferred to the reaction plate (96-well medium binding plate (Greiner Bio-One FLUOTRAC™)) to allow for the desired final concentrations when added to the enzyme with AB. After mixing, the reaction plate was placed on a shaker (at 300 RPM) for 5 min, followed by incubation (covered) on the bench, for 20 min. Plates were warmed to reaction temperature (see Table 3) for a total incubation time of 30 min. Plates so prepared were ready for addition of substrate and the subsequent reaction.
(§1) An appropriate substrate for each assay was prepared in advance at 2× the final desired concentration (see Table 2) in DMSO. The appropriate substrate mix was added to each appropriate well on the reaction plate, and the plate was read immediately in the TECAN plate reader (TECAN INFINITE® M1000 Pro), set to the correct wavelength as needed for each assay (see Table 3) using 25 cycles, kinetic interval of 1 min, number of reads per well of 20 with shaking set to 1 s, double orbital, 2 mm amplitude. For fluorescent assays the gain was set to optimal (50%).
An in vitro fluorogenic detection assay for assessing the IC50 and/or percent inhibition at a given concentration of inhibitors against human Granzyme B (hGzmB) enzyme was performed as described in Example D1. When appropriate, percent inhibition data was collected and fitted to generate IC50 data using GraphPad Prism 5 (GraphPad Software, La Jolla Calif. USA, www.graphpad.com) and its non-linear regression analysis tools or other equivalent tools. […]
as §1, with “5)” for “2)”, “assay buffer. 30 uL of the” for “DMSO. The”, “6)” for “3)”, “15” for “25”, “(100% with gain regulation) for all assays except human GzmB which was set to 85 (with the z set at 23000 um).” for “(50%).”
An in vitro fluorogenic detection assay for assessing the IC50 and/or percent inhibition at a given concentration of inhibitors against human Granzyme B (hGzmB) enzyme was performed as described in Example D5. When appropriate, percent inhibition data was collected and fitted to generate IC50 data using GraphPad Prism 5 (GraphPad Software, La Jolla Calif. USA, www.graphpad.com) and its non-linear regression analysis tools or other equivalent tools.

[1] = Kinetic solubility determination in PBS; assay type: physicochemical; details: PBS 1X pH 7.4, 2.0% DMSO, 24 hour incubation at ambient temperature; for solubility at 24 h: phosphate buffered saline (PBS 1×), 21 °C, pH 7.4, aqueous buffer, kinetic from dmso stock
Method: Kinetic solubility buffer (phosphate buffered saline (PBS, 1×) at pH 7.4) was prepared from PBS (10×) solution, (Fisher Scientific, Pittsburgh, Pa., USA, 10×), by adding PBS (50 mL, 10×) to approximately water (450 mL HPLC grade). The volume of the solution was then adjusted to 500 mL for a total dilution factor of 1:10 and a final PBS concentration of 1×. The pH of the final solution (PBS (1×)) was measured and found to be 7.4.
A DMSO stock solution (typically 10 mM or greater) was used for each compound to be tested. A final DMSO concentration of 2.0% and maximum theoretical compound concentration of typically 200 μM (or greater) was achieved by diluting an aliquot (6 μl) of each stock with kinetic solubility buffer (294 μl, PBS (1×) at pH 7.4) using a liquid handling system (Hamilton STARlet, Hamilton Robotics, Inc., Reno, Nev., USA) and incubated directly in a solubility filter plate (Millipore, Billerica, Mass., USA). Following 24 hour incubation at ambient temperature (20.5-21.7° C.), each sample was vacuum filtered. The filtrate was injected into the chemiluminescent nitrogen detector for quantification (Automated Discovery Workstation, Analiza, Inc., Cleveland, Ohio, USA). Each result was reported both in μM and μg/mL units. Three separate on-board performance indicating standards were assayed in triplicate with each test compound to ensure test results were within the acceptable range.
The equimolar nitrogen response of the detector was calibrated using standards which spanned the dynamic range of the instrument from 0.08 to 4500 μg/ml nitrogen. Each filtrate was quantified with respect to this calibration curve. Each calculated solubility value was corrected for background nitrogen present in the DMSO, and buffer used to prepare each sample. All reported values for samples containing adjacent nitrogen atoms in a ring structure were corrected for the expected non-equimolar response. Each calculated solubility result assumed that each sample was free of nitrogen containing impurities and was stable under the assay conditions. Analyses were performed at Analiza Inc. (Cleveland, Ohio, USA) by published methods (Bhattachar, S. N., et al, J. Pharma. BioMed Anal. 41:152-7 2006).

T1 sequence (P10144 21-247): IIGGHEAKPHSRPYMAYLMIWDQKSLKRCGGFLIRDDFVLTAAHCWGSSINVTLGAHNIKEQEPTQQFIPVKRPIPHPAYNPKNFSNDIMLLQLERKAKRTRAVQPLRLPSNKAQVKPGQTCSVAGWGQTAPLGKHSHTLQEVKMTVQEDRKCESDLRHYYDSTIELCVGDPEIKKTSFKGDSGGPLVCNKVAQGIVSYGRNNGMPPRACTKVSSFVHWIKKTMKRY

`CC(C)(F)C(NC(=O)Cc1ccccc1)C(=O)NCC(=O)N1c2ccccc2C[C@H]1C(=O)NCc1nn[nH]n1` (mixture of isomers) [Example A41, (2S)-1-{2-[3-Fluoro-3-Methyl-2-(2-Phenylacetamido)Butanamido]Acetyl}-N-(2H-1,2,3,4-Tetrazol-5-Ylmethyl)-2,3-Dihydro-1H-Indole-2-Carboxamide] gave an IC50 (human Granzyme B (hGzmB)) greater than 10000 nM.
Work on `CC[C@H](C)[C@H](NC(=O)Cc1ccccc1)C(=O)NCC(=O)N1c2ccccc2CCC1C(=O)NCc1c[nH]nn1` (mixture of isomers) [Example B5, (2S)-1-{2-[(2S,3S)-3-Methyl-2-(2-Phenylacetamido)Pentanamido]Acetyl}-N-(1H-1,2,3-Triazol-4-Ylmethyl)-1,2,3,4-Tetrahydroquinoline-2-Carboxamide] yielded an IC50 (human Granzyme B (hGzmB)) of 1000 to 10000 nM.
`CC[C@H](C)[C@H](NC(=O)Cc1ccccc1)C(=O)NCC(=O)N1c2ccc(C)cc2CC1C(=O)NCc1c[nH]nn1` (mixture of isomers) [Example B7, 5-Methyl-1-{2-[(2S,3S)-3-Methyl-2-(2-Phenylacetamido)Pentanamido]Acetyl}-N-(1H-1,2,3-Triazol-4-Ylmethyl)-2,3-Dihydro-1H-Indole-2-Carboxamide] gave an IC50 (human Granzyme B (hGzmB)) of 100 to 1000 nM.
Work on `CC[C@H](C)[C@H](NC(=O)C1CCCC1C(=O)O)C(=O)NCC(=O)N1c2ccccc2C[C@H]1C(=O)NCc1nn[nH]n1` (single isomer, unassigned) [Example A57-1] yielded an IC50 (human Granzyme B (hGzmB)) of less than 100 nM.
Compound `CC[C@H](C)[C@H](NC(=O)C1CCCC1C(=O)O)C(=O)NCC(=O)N1c2ccccc2C[C@H]1C(=O)NCc1nn[nH]n1` (single isomer, unassigned) [Example A57-2] has an IC50 (human Granzyme B (hGzmB)) of less than 100 nM.
With `CC[C@H](C)[C@H](NC(=O)CCCCC(=O)O)C(=O)NCC(=O)N1c2ccccc2C[C@H]1C(=O)NCc1nn[nH]n1` [Example A5, 5-{[(1S,2S)-2-Methyl-1-({2-Oxo-2-[(2S)-2-[(2H-1,2,3,4-Tetrazol-5-Ylmethyl)Carbamoyl]-2,3-Dihydro-1H-Indol-1-Yl]Ethyl}Carbamoyl)Butyl]Carbamoyl}Pentanoic Acid] the IC50 (human Granzyme B (hGzmB)) was less than 100 nM.
`CC[C@H](C)[C@H](NC(=O)Cc1cccc(N)c1)C(=O)NCC(=O)N1c2ccccc2C[C@H]1C(=O)NCc1nn[nH]n1` [Example A9, (2S)-1-{2-[(2S,3S)-2-[2-(3-Aminophenyl)Acetamido]-3-Methylpentanamido]Acetyl}-N-(2H-1,2,3,4-Tetrazol-5-Ylmethyl)-2,3-Dihydro-1H-Indole-2-Carboxamide Hydrochloride] gave an IC50 (human Granzyme B (hGzmB)) of 100 to 1000 nM.
Work on `O=C(Cc1ccccc1)N[C@H](C(=O)NCC(=O)N1c2ccccc2C[C@H]1C(=O)NCc1nn[nH]n1)C1CCCCC1` [Example A11, (2S)-1-{2-[(2S)-2-Cyclohexyl-2-(2-Phenylacetamido)Acetamido]Acetyl}-N-(2H-1,2,3,4-Tetrazol-5-Ylmethyl)-2,3-Dihydro-1H-Indole-2-Carboxamide] yielded an IC50 (human Granzyme B (hGzmB)) of 1000 to 10000 nM.
Compound `CC[C@H](C)[C@H](NC(=O)CC(C)CC(=O)O)C(=O)NCC(=O)N1c2ccccc2C[C@H]1C(=O)NCc1nn[nH]n1` (stereo partly drawn) [Example A17, 3-Methyl-4-{[(1S,2S)-2-Methyl-1-({2-Oxo-2-[(2S)-2-[(2H-1,2,3,4-Tetrazol-5-Ylmethyl)Carbamoyl]-2,3-Dihydro-1H-Indol-1-Yl]Ethyl}Carbamoyl)Butyl]Carbamoyl}Butanoic Acid] has an IC50 (human Granzyme B (hGzmB)) of less than 100 nM.
For `CC[C@H](C)[C@H](NC(=O)Cc1ccccc1)C(=O)NCC(=O)N1c2ccccc2C[C@H]1C(=O)NCc1csnn1` [Example B2, (2S)-1-{2-[(2S,3S)-3-Methyl-2-(2-Phenylacetamido)Pentanamido]Acetyl}-N-(1,2,3-Thiadiazol-4-Ylmethyl)-2,3-Dihydro-1H-Indole-2-Carboxamide], the solubility at 24 h ([1]; read-out: Solubility in aqueous PBS Buffer (1X, pH 7.4)) was 12.6 µM and the solubility at 24 h ([1]; read-out: Solubility in aqueous PBS Buffer (1X, pH 7.4), ug/mL) was 8.4 µg/mL.
For `CC[C@H](C)[C@H](NC(=O)Cc1csc2ccccc12)C(=O)N[C@H]1CCc2cccc3c2N(C1=O)[C@H](C(=O)NCc1c[nH]nn1)C3` [Willoughby 20, reference compound], the “Solubility in aqueous PBS Buffer (1X, pH 7.4), uM” value [1] was 4.2-4.9 uM and the “Solubility in aqueous PBS Buffer (1X, pH 7.4), ug/mL” value [1] was 2.6-3.0 ug/mL.
